Experimental data from the NIST ThermoML archive (doi:10.1016/j.jct.2004.07.024).

Experiment: xn = mol fraction of the nth substance listed
Conditions: 101.33 kPa, Liquid

C=Cc1ccccc1 [styrene] + C[S+](C)[O-]
Conditions | mass density [kg/m3]
293.15 K, x1 = 0.062 | 1081.91
293.15 K, x1 = 0.1289 | 1064.06
293.15 K, x1 = 0.2169 | 1042.53
293.15 K, x1 = 0.2956 | 1024.85
293.15 K, x1 = 0.3596 | 1011.37
293.15 K, x1 = 0.4103 | 1001.24
293.15 K, x1 = 0.4596 | 991.74
293.15 K, x1 = 0.5023 | 983.85
293.15 K, x1 = 0.5689 | 972.01
293.15 K, x1 = 0.626 | 962.31
293.15 K, x1 = 0.7025 | 949.86
293.15 K, x1 = 0.7865 | 936.88
293.15 K, x1 = 0.8595 | 926.02
293.15 K, x1 = 0.9312 | 915.7
303.15 K, x1 = 0.0852 | 1066.12
303.15 K, x1 = 0.1495 | 1049.28
303.15 K, x1 = 0.2015 | 1036.5
303.15 K, x1 = 0.2695 | 1020.82
303.15 K, x1 = 0.3351 | 1006.61
303.15 K, x1 = 0.4055 | 992.33
303.15 K, x1 = 0.4824 | 977.63
303.15 K, x1 = 0.5588 | 963.89
303.15 K, x1 = 0.6196 | 953.53
303.15 K, x1 = 0.6726 | 944.85
303.15 K, x1 = 0.7369 | 934.68
303.15 K, x1 = 0.8069 | 924.05
303.15 K, x1 = 0.8756 | 913.99
303.15 K, x1 = 0.9458 | 904.01
313.15 K, x1 = 0.0665 | 1060.82
313.15 K, x1 = 0.1856 | 1029.88
313.15 K, x1 = 0.2581 | 1012.95
313.15 K, x1 = 0.3296 | 997.38
313.15 K, x1 = 0.3895 | 985.13
313.15 K, x1 = 0.4469 | 973.98
313.15 K, x1 = 0.5132 | 961.75
313.15 K, x1 = 0.5958 | 947.37
313.15 K, x1 = 0.6553 | 937.53
313.15 K, x1 = 0.7125 | 928.47
313.15 K, x1 = 0.7665 | 920.19
313.15 K, x1 = 0.8269 | 911.23
313.15 K, x1 = 0.8801 | 903.57
313.15 K, x1 = 0.9485 | 893.98
323.15 K, x1 = 0.0653 | 1050.77
323.15 K, x1 = 0.1856 | 1019.46
323.15 K, x1 = 0.2513 | 1004.06
323.15 K, x1 = 0.3257 | 987.81
323.15 K, x1 = 0.3969 | 973.33
323.15 K, x1 = 0.4582 | 961.55
323.15 K, x1 = 0.5296 | 948.61
323.15 K, x1 = 0.5701 | 941.56
323.15 K, x1 = 0.6352 | 930.72
323.15 K, x1 = 0.6925 | 921.57
323.15 K, x1 = 0.7468 | 913.21
323.15 K, x1 = 0.8169 | 902.83
323.15 K, x1 = 0.8825 | 893.48
323.15 K, x1 = 0.9555 | 883.37
333.15 K, x1 = 0.0626 | 1041.08
333.15 K, x1 = 0.1745 | 1011.71
333.15 K, x1 = 0.2469 | 994.63
333.15 K, x1 = 0.2963 | 983.69
333.15 K, x1 = 0.3458 | 973.27
333.15 K, x1 = 0.3899 | 964.37
333.15 K, x1 = 0.4525 | 952.34
333.15 K, x1 = 0.5252 | 939.14
333.15 K, x1 = 0.6053 | 925.5
333.15 K, x1 = 0.6852 | 912.68
333.15 K, x1 = 0.7562 | 901.86
333.15 K, x1 = 0.8362 | 890.23
333.15 K, x1 = 0.8826 | 883.72
333.15 K, x1 = 0.9332 | 876.75
343.15 K, x1 = 0.0866 | 1023.99
343.15 K, x1 = 0.1762 | 1000.88
343.15 K, x1 = 0.2459 | 984.45
343.15 K, x1 = 0.2856 | 975.61
343.15 K, x1 = 0.3595 | 960.11
343.15 K, x1 = 0.4041 | 951.25
343.15 K, x1 = 0.4896 | 935.26
343.15 K, x1 = 0.5695 | 921.33
343.15 K, x1 = 0.6254 | 912.1
343.15 K, x1 = 0.6925 | 901.53
343.15 K, x1 = 0.7569 | 891.83
343.15 K, x1 = 0.8042 | 884.96
343.15 K, x1 = 0.8685 | 875.91
343.15 K, x1 = 0.9344 | 866.93
353.15 K, x1 = 0.0659 | 1019.29
353.15 K, x1 = 0.1289 | 1002.33
353.15 K, x1 = 0.1865 | 987.92
353.15 K, x1 = 0.2415 | 975.04
353.15 K, x1 = 0.3063 | 960.8
353.15 K, x1 = 0.3895 | 943.8
353.15 K, x1 = 0.4589 | 930.59
353.15 K, x1 = 0.5362 | 916.84
353.15 K, x1 = 0.6089 | 904.68
353.15 K, x1 = 0.6812 | 893.25
353.15 K, x1 = 0.7462 | 883.47
353.15 K, x1 = 0.8126 | 873.91
353.15 K, x1 = 0.8865 | 863.68
353.15 K, x1 = 0.9522 | 854.91
